Results reported in US20080268072A1, “Method of Improving Anticancer Effect of Pulsatillae Radix and a Composition Prepared by the Method” (Song-Bae Kim, priority 2004, published 2008).

Key:
[1] = system: tumor; experiment: Antitumor activity (test not specified)
[2] = system: NCI-H23 cell line; conditions: comparison with adriamicine; cited from earlier work
[3] = system: LL/2 cancer; conditions: BDF1 mouse; cited from earlier work

| Molecule | antitumor activity [1] | activity against NCI-H23 cell line compared with adriamicine [2] | inhibition effect against LL/2 cancer [3] [%] |
| --- | --- | --- | --- |
| 3-0-[0-α-L-rhamnopyranosyl-(1→2)-[0-β-D-glucopyranosyl-(1→4)]-α-L-arabinopyranosyl]hederagenin 28-0-α-L-rhamnopyranosyl-(1→4-[0-β-D-glucopyranosyl-(1→6]-β-D-glucopyranosyl ester [SB 365-0] | no antitumor activity | – | – |
| CC1OC(OC2C(O[C@H]3CC[C@@]4(C)C(CC[C@]5(C)C4CC=C4C6CC(C)(C)CC[C@]6(C(=O)O)CC[C@]45C)[C@]3(C)CO)OCC(OC3OC(CO)C(O)C(O)C3O)C2O)C(O)C(O)C1O (stereo partly drawn) [SB365, 3-0-[0-α-L-rhamnopyranosyl-(1→2)-[0-β-D-glucopyranosyl-(1→4)]-α-L-arabinopyranosyl]hederagenin] | – | more strong activity | 80 |
